# Patent US10722886B2, “Apparatus for separating fine particles and separating method using same” (UNIVERSITY-INDUSTRY COOPERATION GROUP OF KYUNG HEE …, priority 2014, dated 2020)
# System: Jurkat cell
# Experiment: Cytotoxicity experiment (LDH analysis) on Jurkat cells exposed to Triton X-100
# Type: cell-based
# Settings: Jurkat cell exposed to Triton X-100 (0 to 0.1%) for 30 min in CO2 incubator; LDH in separated culture medium, absorbance at 490 nm
# Protocol: After the cell treated using Triton X-100 according to the Example of the present invention was separated using the apparatus for separating the microparticles, the apparatus fastened to the 1 mL syringe, and the conventional centrifuge, the cytotoxicity (%) was measured from the collected cell culture medium.
# Specifically, a Jurkat cell was cultured in RPMI (WELGENE Inc., Korea) suspended using a 10% FBS (WELGENE) and a 1% antibiotic solution containing penicillin and streptomycin (WELGENE). In order to visualize the flow of the cell, the cell was washed with DPBS (WELGENE) and then dyed using a 10 μM CFDA cell tracer (Invitrogen) at room temperature for 15 min. After the dyeing, the cell was washed twice with DPBS.
# The Jurkat cell was exposed to Triton X-100 at various concentrations (0 to 0.1%) in a CO2 incubator for 30 min. Subsequently, the fluid from which the microparticles were separated was obtained using the apparatus for separating the microparticles, to which the syringe was fastened, according to the present invention (manual injection at room temperature for 3 min), and the centrifuge (at 1000 rpm and room temperature for 5 min). […] The lactate dehydrogenase (LDH) analysis was performed in accordance with the manufacturer's directions (#88953, Pierce, Rockford, Ill.), and the absorbance was then measured at 490 nm. […]
substance,measurement,value
Triton X-100,"IC50 value of Triton X-100 (cytotoxicity, LDH analysis)",0.0076%
